Measurements as given in patent US20230023092A1, “TREATMENT OF DEPRESSION AND OTHER VARIOUS DISORDERS WITH PSILOCYBIN” (COMPASS […], priority 2019, published 2023).

Tested on: healthy subjects
Assay: Phase 1 study: adverse events (TEAEs, MedDRA coded)
Assay type: in vivo, human
Details: 25 mg oral
Experimental: A Phase 1 randomized, double-blind, placebo-controlled study to evaluate the effect of psilocybin on cognitive and emotional processing as compared to placebo in healthy volunteers was conducted. The study investigated the short-term (Day 7) and long-term (Day 28) effects of moderate (10 mg) and high doses (25 mg) of psilocybin on key domains of cognition, such as episodic memory, attention, working and spatial memory, social cognition and elements of executive function, including cognitive flexibility.
Each subject was assigned 1 treatment bottle containing 5 capsules packaged in a double-blind fashion, depending on the randomized treatment arm, the bottle contained one of the following: • a. Psilocybin 10 mg: 2×5-mg oral psilocybin capsules plus 3×placebo capsules • b. Psilocybin 25 mg: 5×5-mg oral psilocybin capsules • c. Placebo: 5×placebo capsules
Each 5-mg oral psilocybin capsules comprised 5 mg crystalline psilocybin in the form or Polymorph A, 12.5 mg of SMCC 50, 79.5 mg of SMCC 90, 1 mg sodium starch glycolate, 1 mg colloidal silicon dioxide, and 1 mg sodium stearyl fumarate
Adverse events: Throughout the course of the study, all AEs were monitored and recorded. Each AE was classified according to the following criteria: • i. […] Moderate: The AE produces some impairment of functioning, but is not hazardous to the subject's health. • iii. Severe: The AE produces significant impairment of functioning or incapacitation and is a definite hazard to the subject's health.
Visit 3 (V3): Drug Administration (Day 0): The subject was asked to eat a light breakfast at least two hours prior to coming to the clinic for study drug administration. On Day 0 (V3), the subject underwent the SSTS, had vital signs obtained, medications reviewed, AEs recorded and eligibility reviewed prior to being randomized to study drug. The study drug was administered to up to six subjects simultaneously in individual beds separated by a curtain. The subject was invited to put on eyeshades and headphones, lie down and listen to calming music for the rest of the session (six hours). The subject was supported 1:1 with a chaperone and supervised by the study psychiatrist and lead therapist.
During administration of psilocybin, each subject received one-on-one support from a trained assisting therapist and each dosing session was supervised by a study psychiatrist and a lead therapist. The study drug was administered simultaneously to up to six participants as a single 5-capsule oral dose (10 mg psilocybin: 2×5-mg psilocybin capsules plus 3×placebo capsules; 25 mg psilocybin: 5×5-mg psilocybin capsules; placebo: 5×placebo capsules). Twenty-five dosing sessions were completed, with up to six participants dosed simultaneously per session. Each session lasted approximately 6 to 8 hours with subjects encouraged to relax and engage in introspection for the duration. After the acute effects of the study drug had subsided, subjects were discharged.

CN(C)CCc1c[nH]c2cccc(OP(=O)(O)O)c12 [Psilocybin, psilocybin]
Affect lability, N (%): 3 (10.0) | Affect lability, worst severity Mild, Events: 2 | Affect lability, worst severity Mild, N (%): 2 (6.7) | Affect lability, worst severity Moderate, Events: 1 | Affect lability, worst severity Moderate, N (%): 1 (3.3) | Affect lability, worst severity Severe, Events: 0 | Affect lability, worst severity Severe, N (%): 0 | Any Selected TEAE, Events: 106 | Any Selected TEAE, N (%): 27 (90.0) | Any TEAE leading to death, Events: 0 | Any TEAE leading to death, N (%): 0 | Any TEAE leading to study discontinuation, Events: 0 | Any TEAE leading to study discontinuation, N (%): 0 | Any TEAE related to study treatment, Events: 208 | Any TEAE related to study treatment, N (%): 29 (96.7) | Any TEAE, Events: 217 | Any TEAE, N (%): 29 (96.7) | Any TEAE, worst severity Mild, Events: 14 | Any TEAE, worst severity Mild, N (%): 3 (10.0) | Any TEAE, worst severity Moderate, Events: 52 | Any TEAE, worst severity Moderate, N (%): 16 (53.3) | Any TEAE, worst severity Severe, Events: 29 | Any TEAE, worst severity Severe, N (%): 10 (33.3) | Any serious TEAE related to study treatment, Events: 0 | Any serious TEAE related to study treatment, N (%): 0 | Any serious TEAE, Events: 0 | Any serious TEAE, N (%): 0 | Any severe TEAE, Events: 29 | Any severe TEAE, N (%): 10 (33.3) | Change in sustained attention, Events: 0 | Change in sustained attention, N (%): 0 | Depressed mood, Events: 2 | Depressed mood, N (%): 2 (6.7) | Dissociative identity disorder, Events: 2 | Dissociative identity disorder, N (%): 2 (6.7) | Emotional disorder, Events: 6 | Emotional disorder, N (%): 5 (16.7) | Emotional disorder, worst severity Mild, Events: 1 | Emotional disorder, worst severity Mild, N (%): 1 (3.3) | Emotional disorder, worst severity Moderate, Events: 5 | Emotional disorder, worst severity Moderate, N (%): 4 (13.3) | Emotional disorder, worst severity Severe, Events: 0 | Emotional disorder, worst severity Severe, N (%): 0 | Euphoric mood, Events: 8 | Euphoric mood, N (%): 7 (23.3) | Euphoric mood, worst severity Mild, Events: 3 | Euphoric mood, worst severity Mild, N (%): 3 (10.0) | Euphoric mood, worst severity Moderate, Events: 4 | Euphoric mood, worst severity Moderate, N (%): 4 (13.3) | Euphoric mood, worst severity Severe, Events: 0 | Euphoric mood, worst severity Severe, N (%): 0 | Fatigue, Events: 8 | Fatigue, N (%): 8 (26.7) | Fatigue, worst severity Mild, Events: 3 | Fatigue, worst severity Mild, N (%): 3 (10.0) | Fatigue, worst severity Moderate, Events: 5 | Fatigue, worst severity Moderate, N (%): 5 (16.7) | Fatigue, worst severity Severe, Events: 0 | Fatigue, worst severity Severe, N (%): 0 | Feeling abnormal, Events: 0 | Feeling abnormal, N (%): 0 | Feeling abnormal, worst severity Mild, Events: 0 | Feeling abnormal, worst severity Mild, N (%): 0 | Feeling abnormal, worst severity Moderate, Events: 0 | Feeling abnormal, worst severity Moderate, N (%): 0 | Feeling abnormal, worst severity Severe, Events: 0 | Feeling abnormal, worst severity Severe, N (%): 0 | Feeling of relaxation, Events: 1 | Feeling of relaxation, N (%): 1 (3.3) | Gastrointestinal disorders, Events: 5 | Gastrointestinal disorders, N (%): 5 (16.7) | Gastrointestinal disorders, worst severity Mild, Events: 4 | Gastrointestinal disorders, worst severity Mild, N (%): 4 (13.3) | Gastrointestinal disorders, worst severity Moderate, Events: 1 | Gastrointestinal disorders, worst severity Moderate, N (%): 1 (3.3) | Gastrointestinal disorders, worst severity Severe, Events: 0 | Gastrointestinal disorders, worst severity Severe, N (%): 0 | General disorders and administration site conditions, Events: 18 | General disorders and administration site conditions, N (%): 15 (50.0) | General disorders and administration site conditions, worst severity Mild, Events: 8 | General disorders and administration site conditions, worst severity Mild, N (%): 8 (26.7) | General disorders and administration site conditions, worst severity Moderate, Events: 7 | General disorders and administration site conditions, worst severity Moderate, N (%): 6 (20.0) | General disorders and administration site conditions, worst severity Severe, Events: 1 | General disorders and administration site conditions, worst severity Severe, N (%): 1 (3.3) | Hallucination, Events: 2 | Hallucination, N (%): 2 (6.7) | Hallucination, auditory, Events: 4 | Hallucination, auditory, N (%): 4 (13.3) | Hallucination, auditory, worst severity Mild, Events: 1 | Hallucination, auditory, worst severity Mild, N (%): 1 (3.3) | Hallucination, auditory, worst severity Moderate, Events: 3 | Hallucination, auditory, worst severity Moderate, N (%): 3 (10.0) | Hallucination, auditory, worst severity Severe, Events: 0 | Hallucination, auditory, worst severity Severe, N (%): 0 | Hallucination, gustatory, Events: 0 | Hallucination, gustatory, N (%): 0 | Hallucination, olfactory, Events: 1 | Hallucination, olfactory, N (%): 1 (3.3) | Hallucination, tactile, Events: 4 | Hallucination, tactile, N (%): 4 (13.3) | Hallucination, visual, Events: 22 | Hallucination, visual, N (%): 21 (70.0) | Hallucination, visual, worst severity Mild, Events: 3 | Hallucination, visual, worst severity Mild, N (%): 3 (10.0) | Hallucination, visual, worst severity Moderate, Events: 13 | Hallucination, visual, worst severity Moderate, N (%): 13 (43.3) | Hallucination, visual, worst severity Severe, Events: 5 | Hallucination, visual, worst severity Severe, N (%): 5 (16.7) | Hallucination, worst severity Mild, Events: 0 | Hallucination, worst severity Mild, N (%): 0 | Hallucination, worst severity Moderate, Events: 2 | Hallucination, worst severity Moderate, N (%): 2 (6.7) | Hallucination, worst severity Severe, Events: 0 | Hallucination, worst severity Severe, N (%): 0 | Headache, Events: 16 | Headache, N (%): 15 (50.0) | Headache, worst severity Mild, Events: 10 | Headache, worst severity Mild, N (%): 10 (33.3) | Headache, worst severity Moderate, Events: 5 | Headache, worst severity Moderate, N (%): 5 (16.7) | Headache, worst severity Severe, Events: 0 | Headache, worst severity Severe, N (%): 0 | Hypoaesthesia, Events: 4 | Hypoaesthesia, N (%): 3 (10.0) | Hypoaesthesia, worst severity Mild, Events: 4 | Hypoaesthesia, worst severity Mild, N (%): 3 (10.0) | Hypoaesthesia, worst severity Moderate, Events: 0 | Hypoaesthesia, worst severity Moderate, N (%): 0 | Hypoaesthesia, worst severity Severe, Events: 0 | Hypoaesthesia, worst severity Severe, N (%): 0
